Results as given in patent US8008007B2, “S-adenosyl-L-methionine analogs with extended activated groups for transfer by methyltransferases” (RWTH Aachen, priority 2005, dated 2011).

Key:
M.SssI-Q142A = target: T1, M.SssI-Q142A (Spiroplasma monobiae, UniProt P15840, Q142A); experiment: DNA protection assay with M.SssI variant Q142A on phage lambda DNA; format: biochemical; conditions: 1 μg phage lambda DNA, cofactor 300 μM, 37° C. for 4 h, then R.BstUI
T1 construct: made in house
Source text: (§1) Transfer kinetics of the activated ethyl (—CH2CH3), propyl (—CH2CH2CH3), prop-2-enyl (—CH2CH═CH2), prop-2-ynyl (—CH2C≡CH), but-2-ynyl (—CH2C≡CCH3), pent-2-ynyl (—CH2C≡CCH2CH3) and benzyl group (—CH2C6H5) from cofactors 3-9 by the DNA adenine-N6 methyltransferase M.TaqI and its variant V21 G, the DNA cytosine-C5 methyltransferase M.HhaI and its variant Q82A, the DNA cytosine-N4 methyltransferase M.BcnIB and the DNA cytosine-C5 methyltransferase M.SssI variant Q142A to phage lambda DNA (48502 base pairs) were investigated using a DNA protection assay. This assay makes use of the fact that DNA methyltransferase-catalyzed modifications of nucleobases within the recognition sequences of restriction endonucleases can protect the DNA against fragmentation by these enzymes. […] Unmodified DNA containing 5′-TCGA-3′ recognition sequences is readily fragmentated by R.TaqI. After DNA modification by M.TaqI in the presence of a cofactor with an activated group Z—R modified 5′-TCGA^Z—R-3′ sequences are formed and, as a result, R.TaqI is unable to fragment the modified DNA. Occurrence of fragmentation is then analyzed by agarose gel electrophoresis.
By varying the amounts of DNA methyltransferase, this assay is used to investigate the enzymatic activities of the different DNA methyltransferases with cofactors 3-9 and compare them to the enzymatic activities with the natural cofactor 1. […]
Two fold serial dilutions (20 μL) of M.SssI-Q142A (starting with 3300 ng, 73 pmol) in buffer (10 mM Tris hydrochloride, 50 mM sodium chloride, 1 mM dithiothreitol, pH 7.9), phage lambda DNA (1 μg, 31.3 fmol, 3113 5′-CG-3′ recognition sequences, […] recognition sequences, MBI Fermentas) and the natural cofactor 1 (300 μM) or cofactor analogs 5 and 7 (300 μM) were incubated at 37° C. for 4 h. […] Loading buffer (10 μL, 0.25% bromphenol blue, 30% glycerol) was added to each sample, and aliquots (15 μL) were analyzed for the degree of protection by agarose gel (1%) electrophoresis.

M.HhaI = target: T2, M.HhaI (Haemophilus parahaemolyticus, UniProt P05102); experiment: DNA protection assay with M.HhaI (wild-type) on phage lambda DNA; format: biochemical; conditions: 1.16 μg phage lambda DNA, cofactor 300 μM, 37° C. for 4 h, then R.Hin6I; pH 7.4 (pH 6.0 for cofactor 6)
T2 construct: made in house
Source text: as §1
(§2) By varying the amounts of DNA methyltransferase, this assay is used to investigate the enzymatic activities of the different DNA methyltransferases with cofactors 3-9 and compare them to the enzymatic activities with the natural cofactor 1. The minimal amount of DNA methyltransferase needed to fully protect 1 μg of phage lambda DNA against restriction endonuclease fragmentation under the given experimental conditions is defined as one enzyme unit (u).
(§3) Afterwards, the reactions were stopped by heating to 80° C. for 10 min. […] Parallel control experiments were performed with phage lambda DNA in the absence of M.HhaI and in the presence of M.HhaI (278 ng).

M.HhaI-Q82A = target: T3, M.HhaI-Q82A (Haemophilus parahaemolyticus, UniProt P05102, Q82A); experiment: DNA protection assay with M.HhaI variant Q82A on phage lambda DNA; format: biochemical; conditions: 1.16 μg phage lambda DNA, cofactor 300 μM, 37° C. for 4 h, then R.Hin6I; pH 7.4 (pH 6.0 for cofactor 6)
T3 construct: made in house
Source text: as §1, §2, §3
The DNA protection assay with the M.HhaI variant Q82A (see Example 2B) was performed as described for the wild type enzyme (Example 3B.1).

M.BcnIB = experiment: DNA protection assay with M.BcnIB (wild-type) on phage lambda DNA; format: biochemical; conditions: 1.10 μg phage lambda DNA, cofactor 300 μM, 37° C. for 4 h, then R.BcnI; pH 7.4 (pH 6.0 for cofactor 6)
Source text: as §1, §2
Afterwards the reactions were stopped by heating to 80° C. for 10 min. A solution (10 μL) containing R.BcnI restriction endonuclease (12 u, MBI Fermentas), bovine serum albumin (0.1 mg/mL) and buffer (33 mM Tris acetate, 66 mM potassium acetate, 26.5 mM magnesium chloride, pH 7.9) was added to each dilution and incubation at 37° C. was continued for 1 h. […] Parallel control experiments were performed with phage lambda DNA in the absence of M.BcnIB and in the presence of M.BcnIB (144 ng).

pBR322 plasmid DNA = conditions: modification with M.TaqI or M.HhaI-Q82A/N304A, cofactor 300 μM, 4 h
M.HhaI-Q82A/N304A = target: T4, M.HhaI-Q82A/N304A (Haemophilus parahaemolyticus, UniProt P05102, N304A/Q82A); experiment: DNA protection assay with M.HhaI variant Q82A/N304A on phage lambda DNA; format: biochemical; conditions: 1.16 μg phage lambda DNA, cofactor 300 μM, 37° C. for 1 h, enzyme from 1100 ng
T4 construct: made in house
Method: Afterwards, the reactions were stopped by heating to 80° C. for 10 min. […] Parallel control experiments were performed with phage lambda DNA in the absence of M.HhaI-Q82A/N304A and in the presence of M.HhaI-Q82A/N304A (1100 ng).

T2 sequence (P05102 whole entry): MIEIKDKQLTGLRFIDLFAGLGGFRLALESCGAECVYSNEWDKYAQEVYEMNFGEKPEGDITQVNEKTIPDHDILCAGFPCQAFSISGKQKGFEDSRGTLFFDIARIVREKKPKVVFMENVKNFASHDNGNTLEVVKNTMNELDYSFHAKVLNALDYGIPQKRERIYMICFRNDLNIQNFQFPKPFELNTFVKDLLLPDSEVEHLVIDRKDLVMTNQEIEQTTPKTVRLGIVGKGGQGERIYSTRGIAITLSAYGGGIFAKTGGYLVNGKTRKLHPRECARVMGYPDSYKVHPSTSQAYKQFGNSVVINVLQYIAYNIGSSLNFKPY
T3 sequence (P05102 whole entry Q82A): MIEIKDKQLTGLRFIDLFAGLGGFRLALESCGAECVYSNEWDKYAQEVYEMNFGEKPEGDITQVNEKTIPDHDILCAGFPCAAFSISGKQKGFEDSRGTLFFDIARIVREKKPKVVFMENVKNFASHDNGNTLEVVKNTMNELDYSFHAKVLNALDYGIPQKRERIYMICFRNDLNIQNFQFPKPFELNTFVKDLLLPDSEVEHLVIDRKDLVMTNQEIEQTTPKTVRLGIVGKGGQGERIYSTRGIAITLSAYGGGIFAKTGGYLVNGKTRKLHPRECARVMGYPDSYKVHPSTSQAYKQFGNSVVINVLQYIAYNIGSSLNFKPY
T1 sequence (P15840 whole entry Q142A): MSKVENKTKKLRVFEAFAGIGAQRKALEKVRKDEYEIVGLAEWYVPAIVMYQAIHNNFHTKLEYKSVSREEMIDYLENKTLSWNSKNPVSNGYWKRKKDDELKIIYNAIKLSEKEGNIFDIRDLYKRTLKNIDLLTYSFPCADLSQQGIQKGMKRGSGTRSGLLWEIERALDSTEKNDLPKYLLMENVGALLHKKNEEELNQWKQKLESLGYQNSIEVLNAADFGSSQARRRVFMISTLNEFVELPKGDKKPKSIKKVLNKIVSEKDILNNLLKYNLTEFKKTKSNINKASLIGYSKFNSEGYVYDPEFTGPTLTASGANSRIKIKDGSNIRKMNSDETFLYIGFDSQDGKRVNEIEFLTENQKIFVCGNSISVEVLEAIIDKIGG
T4 sequence (P05102 whole entry Q82A/N304A): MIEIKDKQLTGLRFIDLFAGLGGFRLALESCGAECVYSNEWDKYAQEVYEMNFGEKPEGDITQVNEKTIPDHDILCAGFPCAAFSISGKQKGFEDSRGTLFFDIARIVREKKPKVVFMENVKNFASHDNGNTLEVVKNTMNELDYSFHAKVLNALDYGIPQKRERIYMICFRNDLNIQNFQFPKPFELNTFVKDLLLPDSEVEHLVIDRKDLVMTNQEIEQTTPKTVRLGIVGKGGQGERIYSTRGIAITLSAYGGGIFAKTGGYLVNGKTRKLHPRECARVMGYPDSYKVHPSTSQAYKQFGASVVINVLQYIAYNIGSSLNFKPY

Row | Structure (SMILES) | specific activity of M.HhaI with the cofactor (M.HhaI) | specific activity of M.HhaI-Q82A with the cofactor (M.HhaI-Q82A) | specific activity of M.BcnIB with the cofactor (M.BcnIB) | further results
1 | CC#CC[S+](CCC(N)C(=O)O)CC1OC(n2cnc3c(N)ncnc32)C(O)C1O (mixture of isomers) [Cofactor 7] | 29 u/μg | 58 u/μg | 28 u/μg | specific activity of M.SssI-Q142A with the cofactor (M.SssI-Q142A): 0.6 u/μg
2 | CC[S+](CCC(N)C(=O)O)CC1OC(n2cnc3c(N)ncnc32)C(O)C1O (centres unmarked) [Cofactor 3] |  | 7 u/μg |  | 
3 | CCC[S+](CCC(N)C(=O)O)CC1OC(n2cnc3c(N)ncnc32)C(O)C1O (centres unmarked) [Cofactor 4] | 0 u/μg | 0 u/μg |  | 
4 | C=CC[S+](CCC(N)C(=O)O)CC1OC(n2cnc3c(N)ncnc32)C(O)C1O (centres unmarked) [Cofactor 5] | 7 u/μg | 29 u/μg |  | specific activity of M.SssI-Q142A with the cofactor (M.SssI-Q142A): 1.2 u/μg
5 | C#CC[S+](CCC(N)C(=O)O)CC1OC(n2cnc3c(N)ncnc32)C(O)C1O (centres unmarked) [Cofactor 6] |  |  | 0 u/μg | 
6 | CCC#CC[S+](CCC(N)C(=O)O)CC1OC(n2cnc3c(N)ncnc32)C(O)C1O (centres unmarked) [Cofactor 8] |  |  | 14 u/μg | 
7 | NCCCC(=O)NCC#CC[S+](CCC(N)C(=O)O)CC1OC(n2cnc3c(N)ncnc32)C(O)C1O (centres unmarked) [Cofactor 10] |  |  |  | two-step labeling of amino-modified pBR322 DNA with fluorescein N-hydroxysuccinimidyl ester (pBR322 plasmid DNA): labeling is sequence-specific; protection of phage lambda DNA against R.Hin6I fragmentation (M.HhaI-Q82A/N304A): almost protected phage lambda DNA
